Measured values as given in patent US7998989B2, “2-Imino-1,3-thiazoline-based compounds and T-type calcium channel inhibitors containing the same” (Korea Institute of Science and Technology, priority 2007, dated 2011).
Like-named read-outs stand apart in the source and are kept apart here.

Key:
[1] = molecular target: T1, α1G T-type calcium channel (Homo sapiens, UniProt O43497); assay: Assay for % inhibiting activity against T-type calcium channel using FDSS6000 (fluo-3 calcium imaging, KCl activation); type: cell-based; details: HEK293 cells stably expressing α1G T-type calcium channel and Kir2.1, compounds of the examples; for inhibition at 10 µM: read-out: FDSS (% inhibition)/10uM
T1 construct: host or cells: HEK293
T1 sequence (O43497 whole entry): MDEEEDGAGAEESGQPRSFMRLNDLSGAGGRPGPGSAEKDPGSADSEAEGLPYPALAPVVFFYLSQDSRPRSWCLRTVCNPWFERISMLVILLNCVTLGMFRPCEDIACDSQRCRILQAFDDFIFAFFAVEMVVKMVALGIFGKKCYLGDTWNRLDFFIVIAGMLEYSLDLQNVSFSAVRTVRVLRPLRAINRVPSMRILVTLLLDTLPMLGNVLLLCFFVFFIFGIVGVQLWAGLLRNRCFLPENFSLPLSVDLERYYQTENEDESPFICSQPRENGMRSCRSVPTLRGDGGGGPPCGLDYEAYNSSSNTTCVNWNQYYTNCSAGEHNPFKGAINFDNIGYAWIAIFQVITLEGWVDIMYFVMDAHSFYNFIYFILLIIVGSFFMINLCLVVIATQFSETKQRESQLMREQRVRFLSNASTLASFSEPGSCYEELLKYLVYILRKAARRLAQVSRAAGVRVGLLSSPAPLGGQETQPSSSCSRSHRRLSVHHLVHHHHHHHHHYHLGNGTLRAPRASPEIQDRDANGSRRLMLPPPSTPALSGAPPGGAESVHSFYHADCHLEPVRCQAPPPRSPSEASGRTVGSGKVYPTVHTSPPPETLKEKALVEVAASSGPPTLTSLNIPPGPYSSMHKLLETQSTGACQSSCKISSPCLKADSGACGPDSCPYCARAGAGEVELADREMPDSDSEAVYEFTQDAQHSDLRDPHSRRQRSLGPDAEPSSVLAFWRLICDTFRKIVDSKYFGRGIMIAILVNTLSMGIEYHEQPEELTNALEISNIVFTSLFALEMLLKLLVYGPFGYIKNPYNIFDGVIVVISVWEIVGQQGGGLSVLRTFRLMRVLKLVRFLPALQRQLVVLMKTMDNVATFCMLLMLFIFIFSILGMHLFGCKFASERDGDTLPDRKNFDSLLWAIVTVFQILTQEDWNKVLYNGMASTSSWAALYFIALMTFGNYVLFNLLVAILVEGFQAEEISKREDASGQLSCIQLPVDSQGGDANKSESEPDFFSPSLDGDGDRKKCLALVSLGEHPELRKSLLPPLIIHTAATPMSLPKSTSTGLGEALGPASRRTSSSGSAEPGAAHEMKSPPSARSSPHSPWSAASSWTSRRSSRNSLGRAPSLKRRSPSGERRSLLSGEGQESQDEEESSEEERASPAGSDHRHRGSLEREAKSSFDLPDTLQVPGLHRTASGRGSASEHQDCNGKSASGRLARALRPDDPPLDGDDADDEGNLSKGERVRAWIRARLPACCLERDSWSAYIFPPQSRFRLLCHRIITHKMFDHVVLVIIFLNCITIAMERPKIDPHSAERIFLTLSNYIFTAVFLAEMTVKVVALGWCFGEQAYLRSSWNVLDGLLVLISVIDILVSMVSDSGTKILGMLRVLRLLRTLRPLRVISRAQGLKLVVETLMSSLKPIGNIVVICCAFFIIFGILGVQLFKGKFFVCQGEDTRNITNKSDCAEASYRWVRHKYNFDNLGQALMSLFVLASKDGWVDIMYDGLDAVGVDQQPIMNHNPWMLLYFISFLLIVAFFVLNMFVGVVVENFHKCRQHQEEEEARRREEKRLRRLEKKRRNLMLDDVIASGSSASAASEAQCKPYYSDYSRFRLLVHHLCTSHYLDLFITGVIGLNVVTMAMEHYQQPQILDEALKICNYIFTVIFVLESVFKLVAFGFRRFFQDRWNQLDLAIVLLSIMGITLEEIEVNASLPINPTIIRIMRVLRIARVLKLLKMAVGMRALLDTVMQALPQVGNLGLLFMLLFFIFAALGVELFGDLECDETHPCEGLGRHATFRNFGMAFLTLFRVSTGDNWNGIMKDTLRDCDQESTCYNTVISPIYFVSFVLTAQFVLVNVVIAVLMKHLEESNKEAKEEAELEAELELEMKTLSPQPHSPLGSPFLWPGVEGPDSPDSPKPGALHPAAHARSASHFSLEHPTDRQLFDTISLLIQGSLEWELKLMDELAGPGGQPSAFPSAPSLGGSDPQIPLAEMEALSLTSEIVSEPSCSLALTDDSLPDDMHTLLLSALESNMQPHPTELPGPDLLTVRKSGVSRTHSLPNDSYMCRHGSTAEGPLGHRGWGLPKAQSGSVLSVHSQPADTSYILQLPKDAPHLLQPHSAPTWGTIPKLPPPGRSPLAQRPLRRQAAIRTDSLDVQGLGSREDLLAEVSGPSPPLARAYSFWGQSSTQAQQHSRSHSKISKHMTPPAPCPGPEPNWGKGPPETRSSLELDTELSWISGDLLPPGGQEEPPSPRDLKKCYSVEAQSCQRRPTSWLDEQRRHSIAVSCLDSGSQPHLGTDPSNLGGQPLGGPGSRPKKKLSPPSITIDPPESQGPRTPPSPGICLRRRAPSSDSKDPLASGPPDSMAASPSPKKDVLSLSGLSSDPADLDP
How it was run: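 Percent inhibition derived from […] area against untreated control (100%), after 75 s compound pre-exposure and 75 mM KCl activation. Cells: HEK293 with stable α1G plus Kir2.1, fluo-3/AM-labelled (5 μM), assayed in pH 7.4 HEPES containing 10 mM CaCl2.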

| SMILES | melting point | inhibition at 10 µM ([1]; HEK293, 10 μM) | FDSS (% inhibition)/10uM ([1]; 10 μM) | inhibition at 10 µM ([1]; 10 μM) |
| --- | --- | --- | --- | --- |
| CN1C(=NC2CCCCC2)SCC1CC(=O)Nc1cc(F)cc(F)c1.Cl (centres unmarked) [KHG24534, (2-cyclohexylimino-3-methyl-1,3-thiazolidine-4-yl)-N-(3,5-difluorophenyl)-acetamide hydrochloride] | 240 °C | 45.7% |  |  |
| Cl.O=C(CC1CSC(=NC2CCCCC2)N1C1CCCCC1)NCc1ccccc1C(F)(F)F (centres unmarked) [KHG24547, (2-cyclohexylimino-3-cyclohexyl-1,3-thiazolidine-4-yl)-N-(2-trifluoromethylbenzyl)-acetamide hydrochloride] | 180 °C | 51.1% |  |  |
| CN1C(=NC2CCCCCC2)SCC1C(=O)Nc1cc(F)ccc1F.Cl (centres unmarked) [KHG24626, (2-cycloheptylimino-3-methyl-1,3-thiazolidine-4-yl)-N-(2,5-difluorophenyl)-carboxamide hydrochloride] | 187.9 °C | 42.6% |  |  |
| CN1C(=NC2CCCCCC2)SCC1C(=O)Nc1ccc(F)c(F)c1 (centres unmarked) [KHG24627, (2-cycloheptylimino-3-methyl-1,3-thiazolidine-4-yl)-N-(3,4-difluorophenyl)-carboxamide] | 209.6 °C | 48.5% |  |  |
| Cc1ccc(NC(=O)C2CSC(=NC3CCCCCC3)N2C)cc1.Cl (centres unmarked) [KHG24629, (2-cycloheptylimino-3-methyl-1,3-thiazolidine-4-yl)-N-(4-methylphenyl)-carboxamide hydrochloride] | 202.1 °C |  | 47.03% |  |
| CN1C(=NC2CCCCCC2)SCC1C(=O)Nc1cc(C(F)(F)F)cc(C(F)(F)F)c1.Cl (centres unmarked) [KHG24632, (2-cycloheptylimino-3-methyl-1,3-thiazolidine-4-yl)-N-(3,5-ditrifluoromethylphenyl)-carboxamide hydrochloride] | 202 °C |  | 57.06% |  |
| CN1C(=NC2CCCCCC2)SCC1C(=O)Nc1ccc(Br)cc1 (centres unmarked) [KHG24633, (2-cycloheptylimino-3-methyl-1,3-thiazolidine-4-yl)-N-(4-bromophenyl)-carboxamide] | 109.2 °C | 40.4% |  |  |
| CN1C(=NC2CCCCCC2)SCC1C(=O)Nc1ccccc1Br.Cl (centres unmarked) [KHG24634, (2-cycloheptylimino-3-methyl-1,3-thiazolidine-4-yl)-N-(2-bromophenyl)-carboxamide hydrochloride] | 232.8 °C | 46.9% |  |  |
| CC1SC(=NC2CCCCC2)N(C)C1CC(=O)Nc1cccc(F)c1.Cl (centres unmarked) [KHG24636, (2-cyclohexylimino-3,5-dimethyl-1,3-thiazolidine-4-yl)-N-(3-fluorophenyl)-acetamide hydrochloride] | 257 to 259 °C | 35.2% |  |  |
| CC1SC(=NC2CCCCCC2)N(C)C1CC(=O)Nc1ccccc1.Cl (centres unmarked) [KHG24638, (2-cycloheptylimino-3,5-dimethyl-1,3-thiazolidine-4-yl)-N-phenyl-acetamide hydrochloride] | 236 to 238 °C | 40.8% |  |  |
| Cc1ccc(NC(=O)CC2C(C)SC(=NC3CCCCCC3)N2C)cc1.Cl (centres unmarked) [KHG24639, (2-cycloheptylimino-3,5-dimethyl-1,3-thiazolidine-4-yl)-N-(4-methylphenyl)-acetamide hydrochloride] | 248 to 250 °C | 48.5% |  |  |
| CC1SC(=NC2CCCCCC2)N(C)C1CC(=O)Nc1ccccc1F.Cl (centres unmarked) [KHG24640, (2-cycloheptylimino-3,5-dimethyl-1,3-thiazolidine-4-yl)-N-(2-fluorophenyl)-acetamide hydrochloride] | 197 to 199 °C | 39.6% |  |  |
| CC1SC(=NC2CCCCCC2)N(C)C1CC(=O)Nc1cccc(F)c1.Cl (centres unmarked) [KHG24641, (2-cycloheptylimino-3,5-dimethyl-1,3-thiazolidine-4-yl)-N-(3-fluorophenyl)-acetamide hydrochloride] | 247 to 249 °C | 63.5% |  |  |
| CC1SC(=NC2CCCCCC2)N(C)C1CC(=O)Nc1ccc([N+](=O)[O-])cc1.Cl (centres unmarked) [KHG24642, (2-cycloheptylimino-3,5-dimethyl-1,3-thiazolidine-4-yl)-N-(4-nitrophenyl)-acetamide hydrochloride] | 255 to 258 °C | 66.7% |  |  |
| CC1SC(=NC2CCCCCC2)N(C)C1CC(=O)Nc1ccc(Cl)cc1.Cl (centres unmarked) [KHG24643, (2-cycloheptylimino-3,5-dimethyl-1,3-thiazolidine-4-yl)-N-(4-chlorophenyl)-acetamide hydrochloride] | 240 to 242 °C | 65.4% |  |  |
| CC1SC(=NC2CCCCCC2)N(C)C1CC(=O)Nc1cc(Cl)cc(Cl)c1.Cl (centres unmarked) [KHG24644, (2-cycloheptylimino-3,5-dimethyl-1,3-thiazolidine-4-yl)-N-(3,5-dichlorophenyl)-acetamide hydrochloride] | 248 to 250 °C | 53.4% |  |  |

| SMILES | melting point | inhibition at 10 µM ([1]; HEK293, 10 μM) | FDSS (% inhibition)/10uM ([1]; 10 μM) | inhibition at 10 µM ([1]; 10 μM) |
| --- | --- | --- | --- | --- |
| CC1SC(=NC2CCCCCC2)N(C)C1CC(=O)Nc1cc([N+](=O)[O-])ccc1F.Cl (centres unmarked) [KHG24645, (2-cycloheptylimino-3,5-dimethyl-1,3-thiazolidine-4-yl)-N-(2-fluoro-5-nitrophenyl)-acetamide hydrochloride] | 248 to 251 °C | 48.4% |  |  |
| CC1SC(=NC2CCCCCC2)N(C)C1CC(=O)Nc1cc(C(F)(F)F)cc(C(F)(F)F)c1.Cl (centres unmarked) [KHG24646, (2-cycloheptylimino-3,5-dimethyl-1,3-thiazolidine-4-yl)-N-(3,5-ditrifluoromethylphenyl)-acetamide hydrochloride] | 217 to 219 °C | 58.1% |  |  |
| CC1SC(=NC2CCCCCC2)N(C)C1CC(=O)Nc1ccc(OC(F)(F)F)cc1.Cl (centres unmarked) [KHG24647, (2-cycloheptylimino-3,5-dimethyl-1,3-thiazolidine-4-yl)-N-(4-trifluoromethoxyphenyl)-acetamide hydrochloride] | 247 to 271 °C | 62.4% |  |  |
| CC1SC(=NC2CCCC2)N(C)C1CC(=O)Nc1ccc(C(C)(C)C)cc1.Cl (centres unmarked) [KHG24656, (2-cyclopentylimino-3,5-dimethyl-1,3-thiazolidine-4-yl)-N-(4-t-butylphenyl)-acetamide hydrochloride] | 220 to 223 °C | 46.1% |  |  |
| CC1SC(=NC2CCCC2)N(C)C1CC(=O)Nc1ccc(Cl)cc1.Cl (centres unmarked) [KHG24657, (2-cyclopentylimino-3,5-dimethyl-1,3-thiazolidine-4-yl)-N-(4-chlorophenyl)-acetamide hydrochloride] | 201 to 203 °C | 48% |  |  |
| CN1C(=NC2CCCCCC2)SCC1C(=O)NCc1cccc(F)c1.Cl (centres unmarked) [KHG24666, (2-cycloheptylimino-3-methyl-1,3-thiazolidine-4-yl)-N-(3-fluorobenzyl)-carboxamide hydrochloride] | 226.1 °C | 46.2% |  |  |
| CN1C(=NC2CCCCCC2)SCC1C(=O)NCc1cccc(F)c1 (centres unmarked) [KHG24667, (2-cycloheptylimino-3-methyl-1,3-thiazolidine-4-yl)-N-(3-fluorobenzyl)-carboxamide] | 140.1 °C |  | 45.99% |  |
| Br.CN1C(=NC2CCCCCC2)SCC1C(=O)NCc1cccc(Br)c1 (centres unmarked) [KHG24668, (2-cycloheptylimino-3-methyl-1,3-thiazolidine-4-yl)-N-(3-bromobenzyl)-carboxamide hydrobromide] | 197.3 °C | 50.7% |  |  |
| CN1C(=NC2CCCCCC2)SCC1C(=O)NCc1cccc(Br)c1 (centres unmarked) [KHG24669, (2-cycloheptylimino-3-methyl-1,3-thiazolidine-4-yl)-N-(3-bromobenzyl)-carboxamide] | 133 °C |  | 36.57% |  |
| Br.CN1C(=NC2CCCCCC2)SCC1C(=O)NCc1ccccc1C(F)(F)F (centres unmarked) [KHG24670, (2-cycloheptylimino-3-methyl-1,3-thiazolidine-4-yl)-N-(2-trifluoromethylbenzyl)-carboxamide hydrobromide] | 236.9 °C | 46.7% |  |  |
| CN1C(=NC2CCCCCC2)SCC1C(=O)NCc1ccccc1C(F)(F)F (centres unmarked) [KHG24671, (2-cycloheptylimino-3-methyl-1,3-thiazolidine-4-yl)-N-(2-trifluoromethylbenzyl)-carboxamide] | 223 °C |  | 47.2% |  |
| CCCCN1C(=NC23CC4CC(CC(C4)C2)C3)SCC1CC(=O)Nc1ccc(Cl)cc1.Cl (centres unmarked) [KHG24775, [2-(1-adamantylimino)-3-(n-butyl)-1,3-thiazolidine-4-yl]-N-(4-chlorophenyl)-acetamide hydrochloride] | 158 °C | 62.9% |  |  |
| CCCCc1ccc(NC(=O)CC2CSC(=NC34CC5CC(CC(C5)C3)C4)N2CCCC)cc1.Cl (centres unmarked) [KHG24776, [2-(1-adamantylimino)-3-(n-butyl)-1,3-thiazolidine-4-yl]-N-(4-n-butylphenyl)-acetamide hydrochloride] | 169 °C | 33.8% |  |  |
| CCCCN1C(=NC23CC4CC(CC(C4)C2)C3)SCC1CC(=O)Nc1ccc(C(F)(F)F)cc1.Cl (centres unmarked) [KHG24777, [2-(1-adamantylimino)-3-(n-butyl)-1,3-thiazolidine-4-yl]-N-(4-trifluoromethylphenyl)-acetamide hydrochloride] | 220 °C | 49.2% |  |  |
| CCCCN1C(=NC23CC4CC(CC(C4)C2)C3)SCC1CC(=O)Nc1ccc(F)cc1.Cl (centres unmarked) [KHG24780, [2-(1-adamantylimino)-3-(n-butyl)-1,3-thiazolidine-4-yl]-N-(4-fluorophenyl)-acetamide hydrochloride] | 163 °C |  |  | 55.3% |
